Measurements published in patent US4098823A, “Monospiroalkyl derivatives of prostaglandins” (Miles Laboratories, Inc., priority 1977, dated 1978).

Key:
Femoral Blood Flow = assay: Effects on Femoral Blood Flow in the Dog; type: in vivo; conditions: anesthetized mongrel dog, intraarterial, 0.001 to 10 mcg
Description: The peripheral vasodilator or constrictor effects of these compounds were determined in mongrel dogs of either sex, weighing between 10 and 20 kg anesthestized intravenously with 35 mg/kg of sodium pentobarbital. An external iliac artery was dissected immediately above the femoral arch for a length of approximately 5 cm and a previously calibrated, non-connulating electromagnetic flowmeter sensor with a lumen between 2.5 and 3.5 mm was placed snugly around the vessel. Cannulas were placed in a branch of the artery arising distally to the location of the flowmeter sensor for intraarterial drug administrations, in the contralateral femoral artery for systemic blood pressure recordings and in the trachea for artificial respiration with room air. Femoral blood flow and systemic blood pressure were continously recorded with an electromagnetic flowmeter and pressure tranducer, respectively.
After an adequate control period, test compounds were injected intraarterially at one log-spaced doses ranging from 0.001 to 10 mcg., in a volume of 0.5 ml and at 5 to 10 minute intervals. Maximum changes in bloodflow, as well as any variations in blood pressure, were tabulated for each dose in absolute values (ml/min. and mmHg). The calculations were made taking as control values those existing immediately before administration of each dose. The direction of the observed change (plus for increase and minus for decrease) was also noted. The dose changing bloodflow by 100 ml/min (ED100 ml/min) was calculated graphically and was used for scoring activity as follows: […]

[1] = tested on: Blood Pressure and Heart Rate; assay: Effects on Blood Pressure and Heart Rate in the Anesthetized Cat; type: in vivo; conditions: Felis catus, intravenous, 0.01 to 10.0 mcg/kg, scored only on hypotension, read-out: Test D Activity Value (ED50 mmHg, decrease in blood pressure);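 note: Anesthetized cats given intravenous doses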
Description: The acute effects of test compounds on blood pressure and heart rate were determined in cats of either sex anesthetized with a mixture of pentobarbital sodium (35 mg/kg, i.v.) and barbital sodium (100 mg/kg, i.v.). Cannulas were placed in the trachea to allow adequate spontaneous ventilation, in a femoral artery for blood pressure recording with a strain gage transducer, and in a saphenous vein for drug administration. Heart rate was recorded by means of a cardiotachometer driven by the R wave of the electrocardiogram. After a period of 10 minutes of stable recordings of blood pressure and heart rate, the test compound was administered intravenously at doses increasing from 0.01 to 10.0 mcg/kg, spaced one log and injected at 10 minutes intervals. All doses were injected in a volume of 0.1 ml/kg. Modifications of blood pressure and heart rate induced by the test compound were expressed both in absolute units (mmHg and beats/minutes) and as percent of values recorded immediately before administration of each dose. Biphasic responses were tabulated in the order in which they occur. The direction of the observed changes was also noted (+ for increases and - for decreases).
Activity of compounds in this test was judged only on the basis of the degree of hypotension observed. Thus, the ED50 mmHg (dose decreasing blood pressure by 50 mmHg) was calculated graphically and the compound scored according to the following scale: […]

rat colon = assay: Cascade Assay, colon (smooth muscle stimulant effect); type: cell-based; conditions: superfused, 50% of maximum (PGF2α)
Description: (§1) The smooth muscle stimulant effects of test compounds were determined simultaneously in four different tissues that are known to be reactive to naturally occurring prostaglandins. Segments of rat stomach fundus, rat colon, chick rectum and rabbit aortic strip were obtained as described by: Vane, J. R., Brit. J. Pharmacol., 12: 344 (1957); Regoli, D. and Vane, J. R., Brit. J. Pharmacol., 23: 351 (1964); Mann, M. and West, G. B., Brit. J. Pharmacol., 5: 173 (1950); and Furchgott, R. F. and Bhadrakom, R., J. Pharmacol. Exper. Ther., 108: 129 (1953). One end of each preparation was tied to the bottom of a 10 ml tissue chamber and the other to a force displacement transducer (Grass FT-03) for continuous tension recording. The stomach, colon, and rectum segments were stretched to an initial tension of 1 g, while the aortic strip was subjected to 4 g. All preparations were left undisturbed for 1 hour prior to testing. The chambers were equipped with an external jacket through which water, maintained at 40° C, was circulated. Preparations were arranged one beneath the other in descending order (aorta, stomach, colon and rectum). Provision was made for bathing the four tissues successively so that they were superfused with the same fluid (Gaddum, H. J., Brit. J. Pharmacol., 6: 321 [1953]. The bathing fluid consisted of: Krebs bicarbonate solution aerated with a mixture of 95% O2 and 5% CO2 and warmed at 37° C; atropine sulphate (0.1 mcg/ml), phenoxybenzamine hydrochloride (0.1 mcg/ml), propranolol hydrochloride (3.0 mcg/ml), methysergide maleate (0.2 mcg/ml) and brompheniramine maleate (0.1 mcg/ml) were added to eliminate the possibility of smooth muscle responses being due to stimulation of cholinergic, adrenergic, serotonin or histamine receptors. The fluid was circulated by means of a roller pump and was allowed to drip over the preparations at a rate of 10 ml/minute.
(§2) Test compounds were diluted from stock solutions so as to administer quantities ranging from 0.001 100,000 ng in a volume of 0.5 ml. The compounds were applied by dripping on the uppermost tissue, at intervals of 10 to 20 minutes. Maximal increases in tension after each dose were measured and the results were used to plot dose-response curves. ED50 data (doses necessary to produce a response 50% of maximum) were then calculated graphically for each tissue.
(§3) Activity in each tissue was scored according to the following scale: […]

Gastric Secretion = assay: Effects on Gastric Secretion in the Rat; type: in vivo; conditions: pylorus-ligated rat, subcutaneous, 2 x 1.5 mg/kg (total 3.0 mg/kg), 4 hours
Description: A procedure based on that described by Lipmann (J. Pharm. Pharmacol., 21:335 [1968]) was used to assess the influence of test compounds on gastric secretion. Rats of one sex weighing 150 to 200 g were randomly divided into groups of six animals each and fasted for 48 hours previously to the experiments, water being available adlibitum. The animals were anesthetized with ether, the abdomen was opened through a midline incision and the pylorus was ligated. Test compounds were diluted from stock solution so as to administer a dose of 1.5 mg/kg in a volume equivalent to 1 ml/kg. Subcutaneous injections were applied immediately after surgery and again 2 hours later, so that a total dose of 3.0 mg/kg was administered. Dilutions were made with phosphate buffer (pH 7.38) as recommended by Lee et al. (Prostaglandins 3:29 [1973]), in order to insure adequate stability of drugs at the subcutaneous depot. Each compound was tested in one group of rats; an additional control group received only the vehicle.
Four hours after pyloric ligation the animals were killed with ether, the cardias ligated and the stomachs removed. The volume of gastric secretion was measured and the contents centrifuged at 500 rpm for 10 minutes. Total acid in the supernatant was titrated against a 0.1 N sodium hydroxide solution and the amount expressed in mEq.
Volume and total acid values of the treated group were compared with those of the controls by the "T" test. Antisecretory activity was scored according to the following scale: […]

Rat Uterus = assay: Effects on the Rat Uterus in Vitro; type: cell-based; conditions: Rattus norvegicus; in vitro, 29° C; response 50% that of carbachol; read-out: Test F Rat Uterus, Activity Value (ED50)
Description: The uterine stimulant effect of test compounds was determined in segments of uterus obtained from rats (140-160 g) pretreated subcutaneously with 1 mg/kg of diethyl-stilbesterol 18 hours before the experiment. The tissues were placed in 10 ml chambers filled with de-Jalon solution at 29° C, were aerated and bubbled with 95% O2 and 5% CO2, and were prepared for isometric recording with force displacement transducers. Preparations were stretched to an initial tension of 1 g and were left undisturbed for 30 minutes. Carbachol (1 mcg/ml) was then added to the bath and a response was recorded. After a 10 minute interval the carbachol procedure was repeated. Responses to increasing concentrations of a test compound (0.001 to 10 mcg/ml with one log intervals) were then recorded every 10 minutes. Preparations were washed four times after each response. All doses of compounds were administered in a 0.1 ml volume. Because it has been observed that the magnitude of the second response to carbachol (approximately 10% greater than the first) is close to the maximal response of the tissue, such value was taken as a measure of the sensitivity of a particular segment. Responses to each concentration of the test compound were expressed in terms of percentage of the second response to carbachol and the ED50 (dose producing a response 50% that of carbachol) was calculated graphically. Activity was scored according to the following scale: […]

chick rectum = assay: Cascade Assay, rectum (smooth muscle stimulant effect); type: cell-based; conditions: superfused, 50% of maximum (PGE1)
Description: as §1, §2, §3

rat stomach fundus = assay: Cascade Assay, stomach (smooth muscle stimulant effect); type: cell-based; conditions: superfused, 50% of maximum (PGE1)
Description: as §1, §2, §3

rabbit aortic strip = assay: Cascade Assay, aorta (smooth muscle stimulant effect); type: cell-based; conditions: superfused, 50% of maximum (PGA2)
Description: as §1, §2, §3

[2] = tested on: steroidogenesis in the adrenal glands; conditions: hypophysectomized rats; cited from earlier work

Structure (SMILES) | Test C Activity Value (ED100 ml/min, increase in femoral blood flow) (Femoral Blood Flow) | ED (50 mmHg) [1] | Test E Cascade Assay, Colon, Activity Value (ED50) (rat colon) | Test B Activity Value (% decrease in acidity, inhibition of gastric secretion) (Gastric Secretion) | EC50 (Rat Uterus) | Test E Cascade Assay, Rectum, Activity Value (ED50) (chick rectum) | Test E Cascade Assay, Stomach, Activity Value (ED50) (rat stomach fundus) | Test E Cascade Assay, Aorta, Activity Value (ED50) (rabbit aortic strip) | steroidogenesis in the adrenal glands [2]
O=C(O)CCCCCC[C@H]1C(=O)CC[C@@H]1/C=C/[C@@H](O)C1CC2(CCC2)C1 (relative stereo) [TR-4136, dl 7-{5-oxo-2R-[3S-hydroxy-3-(spiro[3.3]hept-2-yl)-1E-propenyl]cyclopent-1R-yl}heptanoic acid] | 0 (>10.0) | > 0.01 mg/kg | 0 (>10000) | 1 (26-50, not significant) | > 10 µg/mL | 1 (1001 - 10000) | 2 (101 - 1000) | 0 (>10000) | –
O=C(O)CCC/C=C\C[C@H]1C(=O)CC[C@@H]1/C=C/[C@H](O)C1CC2(CCC2)C1 (relative stereo) [TR-4147, dl 7-{5-oxo-2R-[3R-hydroxy-3-(spiro[3.3]hept-2-yl)-1E-propenyl]cyclopent-1R-yl}hept-5Z-enoic acid] | 0 (>10.0) | 0.00011 to 0.001 mg/kg | 0 (>10000) | 0 (<26) | > 10 µg/mL | 2 (101 - 1000) | 2 (101 - 1000) | 1 (1001 - 10000) | –
CCCCC[C@H](O)/C=C/[C@@H]1[C@@H](CCCCCCC(=O)O)[C@@H](O)C[C@H]1O [PGF1α] | – | – | – | – | – | – | – | – | stimulate steroidogenesis in the adrenal glands
COC(=O)CCCCCC[C@H]1C(=O)C[C@@H](O)[C@@H]1/C=C/[C@@H](O)C1CC2(CCC2)C1 [TR-4121, Methyl 7-{3R-hydroxy-5-oxo-2R-[3S-hydroxy-3-(spiro[3.3]hept-2-yl)-1E-propenyl]cyclopent-1R-yl}heptanoate] | 2 (0.11 - 1.0) | > 0.01 mg/kg | 0 (>10000) | 1 (26-50, not significant) | > 10 µg/mL | 0 (>10000) | 0 (>10000) | 0 (>10000) | –
COC(=O)CCCCCC[C@@H]1[C@@H](/C=C/[C@@H](O)C2CC3(CCC3)C2)[C@H](O)C[C@@H]1O [TR-4139, Methyl 7-{3R,5S-dihydroxy-2R-[3S-hydroxy-3-(spiro[3.3]hept-2-yl)-1E-propenyl]cyclopent-1R-yl}heptanoate] | 0 (>10.0) | > 0.01 mg/kg | 0 (>10000) | 0 (<26) | > 10 µg/mL | 0 (>10000) | 0 (>10000) | 0 (>10000) | –
